Test results reported in patent publication US20240377400A1, “METHODS FOR TREATING A SUBTYPE OF COLORECTAL CANCER” (Cornell University, priority 2021, published 2024).

System: tumors from Prkci^fl/fl Prkcz^fl/fl Villin-cre (DKO) mice
Assay: scRNAseq and IHC of DKO mouse intestinal tumors treated with PVHA or Galunisertib
Format: in vivo
Protocol: FIG. 3A illustrates the experimental design: Prkci^fl/flPrkcz^fl/fl (DKO) mice were treated either with PVHA (0.0375 mg/Kg twice per week) or Galunisertib (10 mg twice daily) as described. Intestinal tumors were analyzed by scRNAseq.
To identify the mechanism of action of PVHA in the treatment of CMS4 tumors, scRNAseq was performed using 10× Genomics Chromium platform on tumors from Prkci^fl/fl Prkcz^fl/fl Villin-cre (DKO) mice (n=5) treated with PVHA for 14 weeks (n=3), as compared to those treated with Galunisertib (GAL) for 17 weeks (n=3), as shown in experimental design (FIG. 3A). Unsupervised clustering identified tumor and normal epithelial cells as well as stromal and immune cells with selective markers for each population (FIGS. 3B-3C). […] Among tumor clusters (0,4,6), a cell population with transcriptomic similarities to the recently identified “revival stem cells” (RSC; high Clu) in the vehicle treated tumors was identified (FIGS. 3F-3G).

Cc1cccc(-c2nn3c(c2-c2ccnc4ccc(C(N)=O)cc24)CCC3)n1 [GAL, Galunisertib, reference compound]
Cd8 T cells, cell type proportion (scRNAseq T cells): increase | fibroblast clusters associated with human CRC (Grem1/Sfrp1, Igf1/Cxcl14), CMS4 subtype (Sfrp2) and tumor initiation (Ptgs2/Spp1) (scRNAseq cell-type proportion): complete elimination | tumoral goblet population (scRNAseq goblet cells): reduction | T cells, cell-type proportion (scRNAseq immune cells): increase | myeloid cells, cell-type proportion (scRNAseq immune cells): decrease | TAN1 (anti-tumoral neutrophils) (scRNAseq myeloid cells): only increased | TAN2 (pro-tumoral neutrophils) (scRNAseq myeloid cells): without affecting | percentage of stromal and immune cells (scRNAseq, PVHA 0.0375 mg/Kg twice per week, 14 weeks, Galunisertib 10 mg twice daily, 17 weeks): decreased | number of stromal cells (scRNAseq, without apparent changes in cell-type proportions): reduced
